Calls of active or inactive are those of the source. The rule behind the calls is not given here.
Key:
[1] = target: T1, Bifunctional epoxide hydrolase 2 (Homo sapiens) (UniProt P34913); experiment: Inhibition of sEH (unknown origin) at 100 uM using PHOME as substrate after 40 mins by fluorescence photometric method relative to control
T1 sequence (whole entry): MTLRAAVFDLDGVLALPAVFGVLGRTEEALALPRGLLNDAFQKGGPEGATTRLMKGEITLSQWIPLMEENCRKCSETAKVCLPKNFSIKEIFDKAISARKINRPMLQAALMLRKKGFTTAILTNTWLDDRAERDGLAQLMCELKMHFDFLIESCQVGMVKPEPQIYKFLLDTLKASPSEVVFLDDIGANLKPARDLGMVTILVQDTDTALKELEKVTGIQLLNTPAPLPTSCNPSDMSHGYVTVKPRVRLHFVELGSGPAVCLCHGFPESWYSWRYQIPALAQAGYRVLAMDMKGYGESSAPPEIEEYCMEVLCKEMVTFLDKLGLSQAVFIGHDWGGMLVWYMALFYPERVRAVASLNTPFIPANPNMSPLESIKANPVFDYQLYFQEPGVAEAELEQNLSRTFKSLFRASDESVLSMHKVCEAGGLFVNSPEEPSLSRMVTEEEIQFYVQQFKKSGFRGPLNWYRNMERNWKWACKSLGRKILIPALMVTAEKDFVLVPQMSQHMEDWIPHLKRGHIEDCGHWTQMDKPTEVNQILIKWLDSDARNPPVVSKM

[2] = target: T1, Bifunctional epoxide hydrolase 2 (Homo sapiens); experiment: (§1) Inhibition of sEH (unknown origin) using PHOME as substrate after 40 mins by fluorescence photometric method
[3] = target: T2, Bifunctional epoxide hydrolase 2 (Homo sapiens, UniProt P34913); experiment: as §1
T2 sequence (P34913 whole entry): T1 sequence (whole entry)

[4] = target: T1, Bifunctional epoxide hydrolase 2 (Homo sapiens); experiment: Competitive inhibition of sEH (unknown origin) at 0.78 to 6.25 uM using PHOME as substrate measured for 30 mins by Lineweaver-burk plot method
[5] = target: T1, Bifunctional epoxide hydrolase 2 (Homo sapiens); experiment: Mixed type inhibition of sEH (unknown origin) at 0.78 to 6.25 uM using PHOME as substrate measured for 30 mins by Lineweaver-burk plot method
[6] = target: T1, Bifunctional epoxide hydrolase 2 (Homo sapiens); settings: 0.78 to 6.25 uM

| inhibition [1] [%] | inhibition [2] | IC50 [3] [nM] | inhibition [4] | inhibition [5] | inhibition [6] | SMILES |
| --- | --- | --- | --- | --- | --- | --- |
| 77 | Dose-dependent effect | 1300 | Active |  |  | CC(C)=C/C=C1\C(=O)N(C)c2ccccc21 |
| 80.2 | Dose-dependent effect | 800 | Active |  |  | CC(C)=C/C=C1/C(=O)N(C)c2ccccc21 |
| 81.3 | Dose-dependent effect | 2800 |  | Active |  | O=C(/C=C/c1ccc(O)c(O)c1)O[C@@H]1C[C@](O)(C(=O)O)C[C@@H](OC(=O)/C=C/c2ccc(O)c(O)c2)[C@H]1O |
| 99.2 | Dose-dependent effect | 1800 |  | Active |  | COC(=O)/C=C/c1ccc(O)c(OC)c1 |
| 104 | Dose-dependent effect | 1100 |  |  | Active | COc1ccc(/C=C/C(=O)OCC(=O)Cc2ccc(O)c(O)c2)cc1O [CIMIRACEMATE A] |
| 98.3 | Dose-dependent effect | 1600 |  | Active |  | COc1ccc(/C=C/C(=O)OCC(=O)c2ccc(O)c(O)c2)cc1O |
| 95.1 | Dose-dependent effect | 1000 | Active |  |  | CC(C)=C/C=C1/C(=O)Nc2ccccc21 |
